Consider four compounds from patent publication US11279733B2, “Peptide antibiotics” (priority 2017, dated 2022).

One series concerns A. baumannii GN_093 PmxR. The following applies: GN 093 PmxR. The procedure, abridged: (§1)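 Mid-log cultures grown in Mueller Hinton broth at 37° C were tested by 2-fold broth microdilution at 5×10^5 CFU/mL final. Compounds were dissolved in water and tested over a final range of 32 to 0.015 μg/mL.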
For series [1], the system named is P. aeruginosa GN_043, PmxR. The following applies: polymyxin-resistant. In short, it runs like this: as §1
In series [2] the test system is P. aeruginosa GN_105, PmxR. The following applies: GN 105, PmxR. The procedure, abridged:
as §1

For series [3], the system named is K. pneumoniae GN_102 PmxR. To be noted: GN 102 PmxR. In short, it runs like this:
as §1

The subject of the next series is A. baumannii ATCC 19606. The following applies: ATCC 19606. In short, it runs like this: as §1
For series [4], the system named is K. pneumoniae GN_106, PmxR. The following applies: GN 106, PmxR. In short, it runs like this:
as §1

Series [5] concerns S. aureus ATCC 25923, MSSA. To be noted: ATCC 25923. The procedure, abridged: as §1
Series [6] has as its system K. pneumoniae ATCC 700603, MDR. To be noted: ATCC 700603. In short, it runs like this: as §1
For series [7], the system named is K. pneumoniae ATCC BAA-2146, NDM-1 pos. The following applies: ATCC BAA-2146. In short, it runs like this: as §1
For another series, the system named is P. aeruginosa ATCC 27853. The following applies: ATCC 27853. The procedure, abridged:
as §1

The subject of another series is K. pneumoniae ATCC 13883. The following applies: ATCC 13883. The procedure, abridged:
as §1

Another series deals with E. coli ATCC 25922. To be noted: ATCC 25922. The procedure, abridged: as §1
A short description of a further series: in vitro. To be noted: human. In short, it runs like this: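 Cells were seeded at 4000 per well and allowed to attach for 24 h at 37 °C, 5% CO2, then exposed to compounds for 24 h. Resazurin (5 μM) was added for 2 h at 37 °C and fluorescence read at 560/590 nm. CC50 was derived by curve fitting of dose-dependent growth inhibition.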

Molecules are shown by their SMILES. Values after ≈ are worked out from the molar mass of the structure shown. Positions of bridges follow the written chain, without caps; N, C: chain ends. Non-standard residues stand in square brackets, D forms with d. Residues, ends and D or L forms follow the SMILES beside them. *: point of attachment. Decanoyl(3R-OH) = CCCCCCC[C@@H](O)CC(=O)*; dPhe(4-F) = N[C@H](Cc1ccc(F)cc1)C(=O)O; d2Nal = N[C@H](Cc1ccc2ccccc2c1)C(=O)O; d(hPhe) = N[C@H](CCc1ccccc1)C(=O)O; dDab = NCC[C@@H](N)C(=O)O; Dab = NCC[C@H](N)C(=O)O

For the compound `CCCCCCC[C@@H](O)CC(=O)N[C@H](CCN)C(=O)N[C@H]1CCNC(=O)[C@H](Cc2c[nH]c3ccccc23)NC(=O)[C@H](CCN)NC(=O)[C@H](CCN)NC(=O)[C@H](CC(C)C)NC(=O)[C@@H](Cc2ccc3ccccc3c2)NC(=O)[C@H](CCN)NC1=O` [compound 8113, 3(R)OH-nC9CO-D-Dab-cyc[L-Dab-L-Dab-L-Dab-D-Ala(2-Na)-L-Leu-L-Dab-L-Dab-L-Trp]] ({Decanoyl(3R-OH)}-[dDab][Dab][Dab][d2Nal]L[Dab][Dab]W; lactam 2-C), the “MIC A. baumannii GN_093 PmxR” value against A. baumannii GN_093 PmxR was determined as 8 µg/mL (≈ 6.85 µM). The “MIC P. aeruginosa GN_043, PmxR” value in series [1] amounted to 4 µg/mL (≈ 3.43 µM). In addition, the “MIC P. aeruginosa GN_105, PmxR” value in series [2] amounted to 4 µg/mL (≈ 3.43 µM). Also, in series [3], the “MIC K. pneumoniae GN_102 PmxR” value turned out to be 8 µg/mL (≈ 6.85 µM). Besides, in the series on A. baumannii ATCC 19606, the “MIC A. baumannii ATCC 19606” value was 8 µg/mL (≈ 6.85 µM). Further, the “MIC K. pneumoniae GN_106, PmxR” value in [4] turned out to be 8 µg/mL (≈ 6.85 µM). The “MIC S. aureus ATCC 25923, MSSA” value in series [5] came to 4 µg/mL (≈ 3.43 µM). Moreover, in series [6], the “MIC K. pneumoniae ATCC 700603, MDR” value was 8 µg/mL (≈ 6.85 µM). Moreover, the “MIC K. pneumoniae ATCC BAA-2146, NDM-1 pos” value in [7] worked out at 8 µg/mL (≈ 6.85 µM). In the series with P. aeruginosa ATCC 27853, the “MIC P. aeruginosa ATCC 27853” value amounted to 8 µg/mL (≈ 6.85 µM). In the series with K. pneumoniae ATCC 13883, the “MIC K. pneumoniae ATCC 13883” value was 4 µg/mL (≈ 3.43 µM). For the same compound, the “MIC E. coli ATCC 25922” value in the series on E. coli ATCC 25922 is 8 µg/mL (≈ 6.85 µM). This compound also displayed a CC50 at 24 h in the series “in vitro” of 28 µM.

In the case of `CCCCCCC[C@@H](O)CC(=O)N[C@H](CCN)C(=O)N[C@H]1CCNC(=O)[C@H](Cc2c[nH]c3ccccc23)NC(=O)[C@H](CCN)NC(=O)[C@H](CCN)NC(=O)[C@H](CC(C)C)NC(=O)[C@@H](Cc2ccc(F)cc2)NC(=O)[C@H](CCN)NC1=O` [compound 8119, 3(R)OH-nC9CO-D-Dab-cyc[L-Dab-L-Dab-L-Dab-D-Phe(4-F)-L-Leu-L-Dab-L-Dab-L-Trp]] ({Decanoyl(3R-OH)}-[dDab][Dab][Dab][dPhe(4-F)]L[Dab][Dab]W; lactam 2-C), in the series with A. baumannii GN_093 PmxR, the “MIC A. baumannii GN_093 PmxR” value amounted to 8 µg/mL (≈ 7.05 µM). The “MIC P. aeruginosa GN_043, PmxR” value in series [1] amounted to 2 µg/mL (≈ 1.76 µM). Further, the “MIC P. aeruginosa GN_105, PmxR” value in series [2] turned out to be 2 µg/mL (≈ 1.76 µM). Besides, the “MIC K. pneumoniae GN_102 PmxR” value in series [3] is 4 µg/mL (≈ 3.52 µM). Moreover, the “MIC A. baumannii ATCC 19606” value against A. baumannii ATCC 19606 is 8 µg/mL (≈ 7.05 µM). For the same compound, the “MIC K. pneumoniae GN_106, PmxR” value in series [4] turned out to be 4 µg/mL (≈ 3.52 µM). Also, the “MIC S. aureus ATCC 25923, MSSA” value in [5] is 16 µg/mL (≈ 14.1 µM). In [6], the “MIC K. pneumoniae ATCC 700603, MDR” value was found to be 8 µg/mL (≈ 7.05 µM). The “MIC K. pneumoniae ATCC BAA-2146, NDM-1 pos” value in series [7] was found to be 4 µg/mL (≈ 3.52 µM). Besides, in the series with P. aeruginosa ATCC 27853, the “MIC P. aeruginosa ATCC 27853” value is 4 µg/mL (≈ 3.52 µM). Also, in the series on K. pneumoniae ATCC 13883, the “MIC K. pneumoniae ATCC 13883” value came to 4 µg/mL (≈ 3.52 µM). In addition, the “MIC E. coli ATCC 25922” value against E. coli ATCC 25922 stood at 8 µg/mL (≈ 7.05 µM). This compound also showed a CC50 at 24 h in the series “in vitro” of 64 µM.

Turning to `CCCCCCC[C@@H](O)CC(=O)N[C@H](CCN)C(=O)N[C@H]1CCNC(=O)[C@H](Cc2c[nH]c3ccccc23)NC(=O)[C@H](CCN)NC(=O)[C@H](CCN)NC(=O)[C@H](CC(C)C)NC(=O)[C@@H](Cc2c[nH]c3ccccc23)NC(=O)[C@H](CCN)NC1=O` [compound 8127, 3(R)OH-nC9CO-D-Dab-cyc[L-Dab-L-Dab-L-Dab-D-Trp-L-Leu-L-Dab-L-Dab-L-Trp]] ({Decanoyl(3R-OH)}-[dDab][Dab][Dab][dW]L[Dab][Dab]W; lactam 2-C), the “MIC A. baumannii GN_093 PmxR” value against A. baumannii GN_093 PmxR was 32 µg/mL (≈ 27.7 µM). For the same compound, the “MIC P. aeruginosa GN_043, PmxR” value in series [1] amounted to 2 µg/mL (≈ 1.73 µM). Also, in series [2], the “MIC P. aeruginosa GN_105, PmxR” value is 2 µg/mL (≈ 1.73 µM). Also, the “MIC K. pneumoniae GN_102 PmxR” value in [3] came to 16 µg/mL (≈ 13.8 µM). Moreover, the “MIC A. baumannii ATCC 19606” value in the series with A. baumannii ATCC 19606 worked out at 16 µg/mL (≈ 13.8 µM). The “MIC K. pneumoniae GN_106, PmxR” value in series [4] turned out to be 4 µg/mL (≈ 3.46 µM). For the same compound, the “MIC S. aureus ATCC 25923, MSSA” value in series [5] is 4 µg/mL (≈ 3.46 µM). The “MIC K. pneumoniae ATCC 700603, MDR” value in series [6] came out at 4 µg/mL (≈ 3.46 µM). In series [7], the “MIC K. pneumoniae ATCC BAA-2146, NDM-1 pos” value was 4 µg/mL (≈ 3.46 µM). In addition, the “MIC P. aeruginosa ATCC 27853” value against P. aeruginosa ATCC 27853 was found to be 2 µg/mL (≈ 1.73 µM). Moreover, the “MIC K. pneumoniae ATCC 13883” value against K. pneumoniae ATCC 13883 worked out at 16 µg/mL (≈ 13.8 µM). The “MIC E. coli ATCC 25922” value against E. coli ATCC 25922 was 2 µg/mL (≈ 1.73 µM). Also, the CC50 at 24 h in “in vitro” was 63 µM.

Consider `CCCCCCC[C@@H](O)CC(=O)N[C@H](CCN)C(=O)N[C@H]1CCNC(=O)[C@H](Cc2c[nH]c3ccccc23)NC(=O)[C@H](CCN)NC(=O)[C@H](CCN)NC(=O)[C@H](CC(C)C)NC(=O)[C@@H](CCc2ccccc2)NC(=O)[C@H](CCN)NC1=O` [compound 8129, 3(R)OH-nC9CO-D-Dab-cyc[L-Dab-L-Dab-L-Dab-D-hPhe-L-Leu-L-Dab-L-Dab-L-Trp]] ({Decanoyl(3R-OH)}-[dDab][Dab][Dab][d(hPhe)]L[Dab][Dab]W; lactam 2-C), for which the “MIC A. baumannii GN_093 PmxR” value against A. baumannii GN_093 PmxR came out at 4 µg/mL (≈ 3.54 µM). Moreover, in [1], the “MIC P. aeruginosa GN_043, PmxR” value was 4 µg/mL (≈ 3.54 µM). Moreover, in series [2], the “MIC P. aeruginosa GN_105, PmxR” value is 2 µg/mL (≈ 1.77 µM). In addition, the “MIC K. pneumoniae GN_102 PmxR” value in series [3] was found to be 4 µg/mL (≈ 3.54 µM). Moreover, the “MIC A. baumannii ATCC 19606” value in the series on A. baumannii ATCC 19606 came out at 4 µg/mL (≈ 3.54 µM). In addition, the “MIC K. pneumoniae GN_106, PmxR” value in [4] came to 4 µg/mL (≈ 3.54 µM). Further, the “MIC S. aureus ATCC 25923, MSSA” value in [5] was found to be 2 µg/mL (≈ 1.77 µM). Besides, the “MIC K. pneumoniae ATCC 700603, MDR” value in series [6] turned out to be 4 µg/mL (≈ 3.54 µM). Also, the “MIC K. pneumoniae ATCC BAA-2146, NDM-1 pos” value in series [7] is 4 µg/mL (≈ 3.54 µM). Further, the “MIC P. aeruginosa ATCC 27853” value against P. aeruginosa ATCC 27853 came out at 2 µg/mL (≈ 1.77 µM). Also, in the series on K. pneumoniae ATCC 13883, the “MIC K. pneumoniae ATCC 13883” value turned out to be 4 µg/mL (≈ 3.54 µM). The “MIC E. coli ATCC 25922” value with E. coli ATCC 25922 worked out at 2 µg/mL (≈ 1.77 µM). Also, the CC50 at 24 h in the series “in vitro” stood at 37 µM.
